Results reported in ChEMBL document CHEMBL3885881, “DrugMatrix”.

Species: Rattus norvegicus
Experiment: DrugMatrix - Regimen: Daily Repeat
Format: toxicity, organism-based, Sprague-Dawley
Design: regimen Daily Repeat, gender Male, age 6-8 weeks
Details: in vivo, po, route oral GAVAGE, vehicle .5 % CMC; for ABSOLUTE BASOPHIL / ABSOLUTE EOSINOPHIL / ABSOLUTE LYMPHOCYTE / ABSOLUTE MONOCYTE / ABSOLUTE SEGMENTED NEUTROPHIL / BASOPHIL / EOSINOPHIL / ERYTHROCYTE COUNT / HEMATOCRIT / HEMOGLOBIN / LEUKOCYTE COUNT / LYMPHOCYTE / MEAN CORPUSCULAR HEMOGLOBIN / MEAN CORPUSCULAR HEMOGLOBIN CONCENTRATION / MEAN CORPUSCULAR VOLUME / MONOCYTE / NEUTROPHIL / NUCLEATED RED BLOOD CELLS / PLATELET COUNT: tissue Blood; for ALANINE AMINOTRANSFERASE / ALBUMIN / ALKALINE PHOSPHATASE / ASPARTATE AMINOTRANSFERASE / BLOOD UREA NITROGEN / CARBON DIOXIDE / CHLORIDE / CHOLESTEROL / CREATINE PHOSPHOKINASE / CREATININE / GLUCOSE / LACTATE DEHYDROGENASE / LIPASE / PHOSPHORUS / POTASSIUM / SODIUM / TOTAL BILIRUBIN / TOTAL PROTEIN / URIC ACID: tissue Plasma
[1] = 0 mg/kg, 72 h, dose level Control, time 3 day
[2] = 0 mg/kg, 120 h, dose level Control, time 5 day
[3] = 15 mg/kg, 72 h, dose level Low, time 3 day

CN1C(=O)CN=C(c2ccccc2)c2cc(Cl)ccc21 [DIAZEPAM]
ABSOLUTE BASOPHIL [1]: 0 CELLS/uL
ABSOLUTE EOSINOPHIL [1]: 0 CELLS/uL
ABSOLUTE LYMPHOCYTE [1]: 12269.67 CELLS/uL
ABSOLUTE MONOCYTE [1]: 160.33 CELLS/uL
ABSOLUTE SEGMENTED NEUTROPHIL [1]: 970 CELLS/uL
BASOPHIL [1]: 0%
EOSINOPHIL [1]: 0%
ERYTHROCYTE COUNT [1]: 5.76 x10E6/uL
HEMATOCRIT [1]: 36.57%
HEMOGLOBIN [1]: 14.22 G/DL
LEUKOCYTE COUNT [1]: 13.4 x10E3/uL
LYMPHOCYTE [1]: 91.67%
MEAN CORPUSCULAR HEMOGLOBIN [1]: 24.67 pg
MEAN CORPUSCULAR HEMOGLOBIN CONCENTRATION [1]: 38.85 G/DL
MEAN CORPUSCULAR VOLUME [1]: 63.52 fL
MONOCYTE [1]: 1.17%
NEUTROPHIL [1]: 7.17%
NUCLEATED RED BLOOD CELLS [1]: 0.33 /100WBC
PLATELET COUNT [1]: 1250.83 x10E3/uL
ALANINE AMINOTRANSFERASE [1]: 49.17 u/L
ALBUMIN [1]: 4.33 G/DL
ALKALINE PHOSPHATASE [1]: 378.5 u/L
ASPARTATE AMINOTRANSFERASE [1]: 82.17 u/L
BLOOD UREA NITROGEN [1]: 15 mg/dL
CARBON DIOXIDE [1]: 34.33 mmol/L
CHLORIDE [1]: 99.17 MEQ/L
CHOLESTEROL [1]: 71.17 mg/dL
CREATINE PHOSPHOKINASE [1]: 258.67 u/L
CREATININE [1]: 0.18 mg/dL
GLUCOSE [1]: 142.67 mg/dL
LACTATE DEHYDROGENASE [1]: 154.33 u/L
LIPASE [1]: 9 u/L
PHOSPHORUS [1]: 11.67 mg/dL
POTASSIUM [1]: 7.13 MEQ/L
SODIUM [1]: 142.22 MEQ/L
TOTAL BILIRUBIN [1]: 0.18 mg/dL
TOTAL PROTEIN [1]: 5.77 G/DL
URIC ACID [1]: 1.55 mg/dL
ABSOLUTE BASOPHIL [2]: 0 CELLS/uL
ABSOLUTE EOSINOPHIL [2]: 23.33 CELLS/uL
ABSOLUTE LYMPHOCYTE [2]: 14943.67 CELLS/uL
ABSOLUTE MONOCYTE [2]: 32 CELLS/uL
ABSOLUTE SEGMENTED NEUTROPHIL [2]: 1084.33 CELLS/uL
BASOPHIL [2]: 0%
EOSINOPHIL [2]: 0.17%
ERYTHROCYTE COUNT [2]: 5.71 x10E6/uL
HEMATOCRIT [2]: 35.28%
HEMOGLOBIN [2]: 14.27 G/DL
LEUKOCYTE COUNT [2]: 16.08 x10E3/uL
LYMPHOCYTE [2]: 93%
MEAN CORPUSCULAR HEMOGLOBIN [2]: 25.02 pg
MEAN CORPUSCULAR HEMOGLOBIN CONCENTRATION [2]: 40.43 G/DL
MEAN CORPUSCULAR VOLUME [2]: 61.82 fL
MONOCYTE [2]: 0.17%
NEUTROPHIL [2]: 6.67%
NUCLEATED RED BLOOD CELLS [2]: 0.33 /100WBC
PLATELET COUNT [2]: 1274 x10E3/uL
ALANINE AMINOTRANSFERASE [2]: 54.17 u/L
ALBUMIN [2]: 4.22 G/DL
ALKALINE PHOSPHATASE [2]: 373.17 u/L
ASPARTATE AMINOTRANSFERASE [2]: 81.83 u/L
BLOOD UREA NITROGEN [2]: 16.67 mg/dL
CARBON DIOXIDE [2]: 30.33 mmol/L
CHLORIDE [2]: 99 MEQ/L
CHOLESTEROL [2]: 71 mg/dL
CREATINE PHOSPHOKINASE [2]: 273.5 u/L
CREATININE [2]: 0.22 mg/dL
GLUCOSE [2]: 141.83 mg/dL
LACTATE DEHYDROGENASE [2]: 153.67 u/L
LIPASE [2]: 10.33 u/L
PHOSPHORUS [2]: 11.38 mg/dL
POTASSIUM [2]: 7.08 MEQ/L
SODIUM [2]: 142.75 MEQ/L
TOTAL BILIRUBIN [2]: 0.18 mg/dL
TOTAL PROTEIN [2]: 6.1 G/DL
URIC ACID [2]: 1.67 mg/dL
ABSOLUTE BASOPHIL [3]: 0 CELLS/uL
ABSOLUTE EOSINOPHIL [3]: 0 CELLS/uL
ABSOLUTE LYMPHOCYTE [3]: 12631.33 CELLS/uL
ABSOLUTE MONOCYTE [3]: 43.67 CELLS/uL
ABSOLUTE SEGMENTED NEUTROPHIL [3]: 1191.67 CELLS/uL
BASOPHIL [3]: 0%
EOSINOPHIL [3]: 0%
ERYTHROCYTE COUNT [3]: 5.07 x10E6/uL
HEMATOCRIT [3]: 32.77%
HEMOGLOBIN [3]: 13.23 G/DL
LEUKOCYTE COUNT [3]: 13.87 x10E3/uL
LYMPHOCYTE [3]: 91%
MEAN CORPUSCULAR HEMOGLOBIN [3]: 26.23 pg
MEAN CORPUSCULAR HEMOGLOBIN CONCENTRATION [3]: 40.4 G/DL
MEAN CORPUSCULAR VOLUME [3]: 64.77 fL
MONOCYTE [3]: 0.33%
NEUTROPHIL [3]: 8.67%
NUCLEATED RED BLOOD CELLS [3]: 0 /100WBC
PLATELET COUNT [3]: 1275.67 x10E3/uL
ALANINE AMINOTRANSFERASE [3]: 54 u/L
ALBUMIN [3]: 4.07 G/DL
ALKALINE PHOSPHATASE [3]: 332.67 u/L
ASPARTATE AMINOTRANSFERASE [3]: 79.33 u/L
BLOOD UREA NITROGEN [3]: 16.67 mg/dL
CARBON DIOXIDE [3]: 27 mmol/L
CHLORIDE [3]: 101.67 MEQ/L
CHOLESTEROL [3]: 72.67 mg/dL
CREATINE PHOSPHOKINASE [3]: 227.67 u/L
CREATININE [3]: 0.25 mg/dL
GLUCOSE [3]: 180 mg/dL
LACTATE DEHYDROGENASE [3]: 173.33 u/L
LIPASE [3]: 9 u/L
PHOSPHORUS [3]: 13.13 mg/dL
POTASSIUM [3]: 7.43 MEQ/L
SODIUM [3]: 143.37 MEQ/L
TOTAL BILIRUBIN [3]: 0.2 mg/dL
TOTAL PROTEIN [3]: 5.57 G/DL
URIC ACID [3]: 1.97 mg/dL
